According to patent publication US20060153897A1, “Zinc-containing foods” (priority 2001, published 2006):

Columns and labels:
[1] = system: Salmonella typhimurium TA 100, TA 1535, TA 98 and TA 1537; experiment: Mutagenicity test (Ames) using microorganisms; type: cell-based; settings: for growth inhibition: high concentrations; for mutation-inducing ability: Salmonella typhimurium TA 100, TA 1535, TA 98, TA 1537, compared with solvent control
From the text: (§1) As a mutagenicity test (Ames) using microorganisms, mutation-inducing ability of zinc complexes with maltol, picolinic acid, picolinamide, 6-methyl-picolinic acid, L-threonine and L-valine was examined using Salmonella typhimurium TA 100, TA 1535, TA 98 and TA 1537 and Escherichia coli WP 2 uvr A.

[2] = system: Escherichia coli WP 2 uvr A; experiment: Mutagenicity test (Ames) using microorganisms; type: cell-based; settings: compared with solvent control
From the text: as §1

female and male rats = experiment: Acute toxicity test; type: in vivo; settings: female and male rats, 2, 8 and 15 days after administration of 2,000 mg/kg
Experimental: (§2) Outside the application of GLP, acute toxicity test was carried out for zinc complexes with maltol, picolinic acid, picolinamide, 6-methyl-picolinic acid, L-threonine and L-valine.

Acute toxicity test = type: in vivo; settings: rat, in vivo
Experimental: as §2

[3] = ligand per se, strain not stated

Compound	growth inhibition [1, 3]	mutation-inducing ability [2]	mutation-inducing ability [1]	change in normal state and autopsy compared with solvent control group (female and male rats)	further results
O=C(O)c1ccccn1 [picolinic acid, reference compound]	growth inhibition at high concentrations				
Cc1cccc(C(=O)[O-])n1.Cc1cccc(C(=O)[O-])n1.[Zn+2] [bis(6-methylpicolinic acid)/zinc complex]		no mutation-inducing ability	no mutation-inducing ability	no special change	
CC(C)[C@H](N)C(=O)[O-].CC(C)[C@H](N)C(=O)[O-].[Zn+2] [zinc complex with L-valine]		no mutation-inducing ability	no mutation-inducing ability	no special change	
Cc1occc(=O)c1O [maltol, reference compound]	growth inhibition at high concentrations				LD50 at 15 days (Acute toxicity test; female): 1590 mg/kg; LD50 at 15 days (Acute toxicity test; male): 1680 mg/kg
bis(maltol)/zinc complex [zinc complex with maltol]			very weakly positive		growth inhibition ([1]; TA 1535 strain): growth inhibition at high concentrations
O=C([O-])c1ccccn1.O=C([O-])c1ccccn1.[Zn+2] [zinc complex with picolinic acid]			very weakly positive	no special change	growth inhibition ([1]; TA 98, TA 1537 strains): growth inhibition at high concentrations
